# US10993941B2, “Methods for the administration of certain VMAT2 inhibitors” (Neurocrine Biosciences, Inc., priority 2017, dated 2021)
# “Also recorded” adds a separate entry of the source.
# Legend:
# [1] = both, human, in vivo
# Text: (§1) Overall, 24 male and female subjects were enrolled, including 6 subjects with normal hepatic function (Group I), 6 with mild stable hepatic impairment (Group II), 6 with moderate stable hepatic impairment (Group III), and 6 with severe stable hepatic impairment (Group IV). […] All subjects were genotyped to determine their cytochrome P450 2D6 (CYP2D6) status.
# (§2) The Child-Pugh scale was used to categorize the degree of hepatic impairment for assignment into the mild (score of 5-6), moderate (score of 7-9), and severe hepatic impairment (score of 10-15) groups.
# (§3) After providing informed consent, subjects were screened for eligibility within 28 days of study drug dosing on Day 1. Eligible subjects were admitted to the center in the morning (Day −1), before the dosing day and remained confined in the center for 4 days. Subjects were discharged on Day 4, after the collection of the 72-hour PK sample and safety assessments. On the morning of Days 5 and 6, subjects returned to the center for a PK sample collection and safety assessments; a final study visit was conducted on Day 8 (7 days postdose).
# (§4) Safety assessments were conducted at scheduled times throughout the study.
# [2] = system: more than 80 targets including GPCRs, cell-surface monoamine transporters, and ion channels including HERG; assay: Multi-target activity screen (Cerep screen); conditions: receptors
# [3] = Phase 1 single-dose safety and tolerability (adverse events, laboratory tests, vital signs, ECG); format: in vivo, human; conditions: NBI-98854 50 mg single dose; for Abdominal discomfort / Adverse events: Overall / Back pain / Constipation / Dyspepsia / Epistaxis / Gastrointestinal Disorders / General Disorders and Administrative Site Conditions / Haemorrhoids / Headache / Infections and Infestations / Musculoskeletal and Connective Tissue Disorders / Nausea / Nervous System Disorders / Rash / Respiratory, Thoracic, and Mediastinal Disorders / Rhinitis / Skin and Subcutaneous Tissue Disorders / Vessel puncture site haematoma: subjects n (%)
# ptosis = assay: Ptosis, in vivo surrogate measure
# VMAT2 [4] = target: T1, VMAT2 (Homo sapiens, UniProt Q05940); assay: Inhibition of [3H]-DHTBZ binding to human platelets
# T1 construct: from tissue; host or cells: human platelets (homogenates)
# serum prolactin = assay: Prolactin release, in vivo surrogate measure
# clinical = conditions: both, human, in vivo
# Text: as §1, §2, §3, §4
# human VMAT1 transporter = target: T2, human VMAT1 transporter (Homo sapiens, UniProt P54219); assay: Uptake in cells expressing VMAT1; format: cell-based; conditions: concentrations up to 10 μM; listed as VBZ
# T2 construct: expressed in transfected cells
# T2 sequence (P54219 1-525): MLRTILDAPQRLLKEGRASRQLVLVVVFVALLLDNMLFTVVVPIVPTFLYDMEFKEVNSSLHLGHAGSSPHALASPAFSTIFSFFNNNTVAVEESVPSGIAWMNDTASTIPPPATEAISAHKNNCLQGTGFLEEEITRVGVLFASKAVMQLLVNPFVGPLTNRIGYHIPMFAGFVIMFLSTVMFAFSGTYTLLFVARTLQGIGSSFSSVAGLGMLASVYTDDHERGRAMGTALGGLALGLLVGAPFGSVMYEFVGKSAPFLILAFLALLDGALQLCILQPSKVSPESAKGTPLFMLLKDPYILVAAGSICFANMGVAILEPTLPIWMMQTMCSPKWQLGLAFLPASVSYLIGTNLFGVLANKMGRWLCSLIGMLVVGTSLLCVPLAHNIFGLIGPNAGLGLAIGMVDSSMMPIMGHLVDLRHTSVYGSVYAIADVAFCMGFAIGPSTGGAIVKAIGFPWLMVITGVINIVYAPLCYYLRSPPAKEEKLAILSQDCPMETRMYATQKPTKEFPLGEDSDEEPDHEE
# Protocol: None of the TBZ or VBZ metabolites had any affinity for the monoamine transporters DAT, SERT or NET. To complete the selectivity profile for VMAT2, the functional activity for the human VMAT1 transporter of these compounds was tested in cells expressing VMAT1.
# VMAT2 [5] = target: T3, VMAT2 (Rattus norvegicus, UniProt Q01827); assay: Inhibition of [3H]-DHTBZ binding to rat striatal membranes; conditions: Rat Striatum
# T3 construct: from tissue; host or cells: rat forebrain membranes
# T3 sequence (Q01827 whole entry): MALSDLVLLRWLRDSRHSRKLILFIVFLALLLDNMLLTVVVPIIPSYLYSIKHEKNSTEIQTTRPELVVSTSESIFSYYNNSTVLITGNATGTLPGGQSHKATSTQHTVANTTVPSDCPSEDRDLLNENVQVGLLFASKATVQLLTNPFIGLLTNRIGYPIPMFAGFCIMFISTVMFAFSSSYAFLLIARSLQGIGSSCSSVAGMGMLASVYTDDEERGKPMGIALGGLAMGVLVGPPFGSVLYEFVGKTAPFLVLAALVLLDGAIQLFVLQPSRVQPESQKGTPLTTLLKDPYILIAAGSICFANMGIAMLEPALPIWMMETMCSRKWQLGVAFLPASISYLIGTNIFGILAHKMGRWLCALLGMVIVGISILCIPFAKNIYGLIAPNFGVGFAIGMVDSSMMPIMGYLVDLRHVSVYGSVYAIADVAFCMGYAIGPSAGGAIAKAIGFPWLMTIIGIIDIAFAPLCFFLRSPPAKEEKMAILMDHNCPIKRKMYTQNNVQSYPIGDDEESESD
# T1 sequence (Q05940 whole entry): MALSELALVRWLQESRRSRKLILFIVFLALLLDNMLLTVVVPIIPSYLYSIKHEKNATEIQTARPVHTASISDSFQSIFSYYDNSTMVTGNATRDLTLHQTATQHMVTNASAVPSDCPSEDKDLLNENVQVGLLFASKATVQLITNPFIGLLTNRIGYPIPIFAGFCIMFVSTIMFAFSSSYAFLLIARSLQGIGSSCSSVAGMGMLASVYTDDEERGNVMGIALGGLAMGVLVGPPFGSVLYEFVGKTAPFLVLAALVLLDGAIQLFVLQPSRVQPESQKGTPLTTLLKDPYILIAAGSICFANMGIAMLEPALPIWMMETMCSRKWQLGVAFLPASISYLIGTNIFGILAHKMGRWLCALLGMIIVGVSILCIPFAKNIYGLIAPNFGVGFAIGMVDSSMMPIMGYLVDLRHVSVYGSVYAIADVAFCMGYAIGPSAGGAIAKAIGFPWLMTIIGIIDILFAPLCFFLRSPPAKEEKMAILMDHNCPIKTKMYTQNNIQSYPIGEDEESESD
smiles,measurement,setting,value
"COc1cc2c(cc1OC)[C@H]1C[C@@H](OC(=O)[C@@H](N)C(C)C)[C@H](CC(C)C)CN1CC2 [NBI-98854, (S)-2-amino-3-methyl-butyric acid (2R,3R,11bR)-3-isobutyl-9,10-dimethoxy-1,3,4,6,7,11b-hexahydro-2H-pyrido[2,1-a]isoquinolin-2-yl ester]",increase in Cmax,[1],2-3 fold
same,increase in t1/2 with hepatic impairment,[1],< 2 fold
same,increase in tmax with hepatic impairment,[1],< 2 fold
same,mean Tlag,[1],0.17 to 0.38 h
same,affinity for more than 80 binding sites,[2],little to no affinity
same,Abdominal discomfort,[3]; Mild (N = 6),0
same,Adverse events: Overall,[3]; Mild (N = 6),2 (33.3%)
same,Back pain,[3]; Mild (N = 6),0
same,Constipation,[3]; Mild (N = 6),0
same,Dyspepsia,[3]; Mild (N = 6),0
same,Epistaxis,[3]; Mild (N = 6),0
same,Gastrointestinal Disorders,[3]; Mild (N = 6),1 (16.7%)
same,General Disorders and Administrative Site Conditions,[3]; Mild (N = 6),0
same,Haemorrhoids,[3]; Mild (N = 6),1 (16.7%)
same,Headache,[3]; Mild (N = 6),1 (16.7%)
same,Infections and Infestations,[3]; Mild (N = 6),1 (16.7%)
same,Musculoskeletal and Connective Tissue Disorders,[3]; Mild (N = 6),0
same,Nausea,[3]; Mild (N = 6),0
same,Nervous System Disorders,[3]; Mild (N = 6),1 (16.7%)
same,Rash,[3]; Mild (N = 6),0
same,"Respiratory, Thoracic, and Mediastinal Disorders",[3]; Mild (N = 6),0
same,Rhinitis,[3]; Mild (N = 6),1 (16.7%)
same,Skin and Subcutaneous Tissue Disorders,[3]; Mild (N = 6),0
same,Vessel puncture site haematoma,[3]; Mild (N = 6),0
same,Abdominal discomfort,[3]; Moderate (N = 6),0
same,Adverse events: Overall,[3]; Moderate (N = 6),2 (33.3%)
same,Back pain,[3]; Moderate (N = 6),1 (16.7%)
same,Constipation,[3]; Moderate (N = 6),1 (16.7%)
same,Dyspepsia,[3]; Moderate (N = 6),0
same,Epistaxis,[3]; Moderate (N = 6),0
same,Gastrointestinal Disorders,[3]; Moderate (N = 6),1 (16.7%)
same,General Disorders and Administrative Site Conditions,[3]; Moderate (N = 6),0
same,Haemorrhoids,[3]; Moderate (N = 6),0
same,Headache,[3]; Moderate (N = 6),0
same,Infections and Infestations,[3]; Moderate (N = 6),0
same,Musculoskeletal and Connective Tissue Disorders,[3]; Moderate (N = 6),1 (16.7%)
same,Nausea,[3]; Moderate (N = 6),0
same,Nervous System Disorders,[3]; Moderate (N = 6),0
same,Rash,[3]; Moderate (N = 6),1 (16.7%)
same,"Respiratory, Thoracic, and Mediastinal Disorders",[3]; Moderate (N = 6),0
same,Rhinitis,[3]; Moderate (N = 6),0
same,Skin and Subcutaneous Tissue Disorders,[3]; Moderate (N = 6),1 (16.7%)
same,Vessel puncture site haematoma,[3]; Moderate (N = 6),0
same,Abdominal discomfort,[3]; Normal (N = 6),1 (16.7%)
same,Adverse events: Overall,[3]; Normal (N = 6),2 (33.3%)
same,Back pain,[3]; Normal (N = 6),0
same,Constipation,[3]; Normal (N = 6),0
same,Dyspepsia,[3]; Normal (N = 6),0
same,Epistaxis,[3]; Normal (N = 6),0
same,Gastrointestinal Disorders,[3]; Normal (N = 6),1 (16.7%)
same,General Disorders and Administrative Site Conditions,[3]; Normal (N = 6),1 (16.7%)
same,Haemorrhoids,[3]; Normal (N = 6),0
same,Headache,[3]; Normal (N = 6),0
same,Infections and Infestations,[3]; Normal (N = 6),0
same,Musculoskeletal and Connective Tissue Disorders,[3]; Normal (N = 6),0
same,Nausea,[3]; Normal (N = 6),0
same,Nervous System Disorders,[3]; Normal (N = 6),0
same,Rash,[3]; Normal (N = 6),0
same,"Respiratory, Thoracic, and Mediastinal Disorders",[3]; Normal (N = 6),0
same,Rhinitis,[3]; Normal (N = 6),0
same,Skin and Subcutaneous Tissue Disorders,[3]; Normal (N = 6),0
same,Vessel puncture site haematoma,[3]; Normal (N = 6),1 (16.7%)
same,Abdominal discomfort,[3]; Severe (N = 6),0
same,Adverse events: Overall,[3]; Severe (N = 6),2 (33.3%)
same,Back pain,[3]; Severe (N = 6),0
same,Constipation,[3]; Severe (N = 6),0
same,Dyspepsia,[3]; Severe (N = 6),1 (16.7%)
same,Epistaxis,[3]; Severe (N = 6),1 (16.7%)
same,Gastrointestinal Disorders,[3]; Severe (N = 6),1 (16.7%)
same,General Disorders and Administrative Site Conditions,[3]; Severe (N = 6),0
same,Haemorrhoids,[3]; Severe (N = 6),0
same,Headache,[3]; Severe (N = 6),0
same,Infections and Infestations,[3]; Severe (N = 6),0
same,Musculoskeletal and Connective Tissue Disorders,[3]; Severe (N = 6),0
same,Nausea,[3]; Severe (N = 6),1 (16.7%)
same,Nervous System Disorders,[3]; Severe (N = 6),0
same,Rash,[3]; Severe (N = 6),0
same,"Respiratory, Thoracic, and Mediastinal Disorders",[3]; Severe (N = 6),1 (16.7%)
same,Rhinitis,[3]; Severe (N = 6),0
same,Skin and Subcutaneous Tissue Disorders,[3]; Severe (N = 6),0
same,Vessel puncture site haematoma,[3]; Severe (N = 6),0
same,intensity of TEAEs judged by the investigator,[3]; all TEAEs,mild in intensity
same,"changes in clinical laboratory tests, vital signs measurements, or ECG parameters",[3]; all groups,no clinically significant changes
same,"deaths, serious or severe TEAEs",[3]; all groups,"No deaths, serious or severe treatment-emergent adverse events (TEAEs) were reported; also recorded: No deaths, serious TEAEs, or discontinuations due to an AE were reported"
same,discontinuation due to a TEAE,[3]; all groups,no subject discontinued the study due to a TEAE
same,tolerability,[3]; normal subjects and subjects with hepatic impairment,well-tolerated
same,Treatment-related AEs (possibly or definitely related to study drug),[3]; of 24 subjects,4 subjects
same,induction of ptosis,ptosis,induced ptosis in an equivalent manner
same,"Affinity Relative to R,R,R-DHTBZ",VMAT2 [4],45
same,increase in serum prolactin levels,serum prolactin,to a lesser extent
same,MRT,clinical,23 to 30 h
same,half-life,clinical; mean t1/2,21 to 22 h
same,MRT,"clinical; po, 50 mg",24 h
same,Tmax,"clinical; po, 50 mg, TMAX",1.1 h
same,Vd/F,"clinical; po, 50 mg, Vz/F",600 L
same,half-life,"clinical; po, 50 mg, t1/2",28 h
same,inhibition of uptake through VMAT1,human VMAT1 transporter,no significant inhibitory activity; also recorded: no significant effect on the uptake of monoamines through VMAT1
same,"Affinity Relative to R,R,R-DHTBZ",VMAT2 [5],39
